Legend:
mouse ES cells (SK7) = assay: Immunohistochemical analysis of AFP-, Pdx1/GFP- and Alb-expressing cells in mouse ES cells differentiated on M15 cells; format: cell-based; conditions: for number of AFP-positive cells: factor added after d4, 10% KSR, 2,000 mg/L glucose (FIG. 3); for AFP expression, one factor added: one factor added d4 to d8, KSR, glucose 2,000 mg/L (FIG. 2B)
Experimental: A previously reported SK7 cell line (mouse ES cells) having a Pdx1 promoter-derived GFP reporter-introduced gene was used (International Publication WO2006/126574). The SK7 ES cells were maintained on mouse embryonic fibroblasts (MEF), using a Glasgow minimum essential medium (Invitrogen) supplemented with 1,000 units/mL leukemia inhibitory factor (Chemicon), 15% KSR (knockout serum replacement; Gibco), 1% fetal bovine serum (FBS; Hyclone), 100 μM nonessential amino acid (Invitrogen), 2 mM L-glutamine (Invitrogen), 1 mM sodium pyruvate (Invitrogen), 50 units/mL penicillin, 50 μg/mL streptomycin (Invitrogen) and 100 μM β-mercaptoethanol.
Thereafter, the ES cells (the number of cells: 5,000 and 20,000, respectively) were inoculated on a 24-well or 6-well plate (Nunc) that had previously been coated with the M15 cells. Subsequently, using DMEM containing 100 μM nonessential amino acid, 2 mM L-glutamine, 50 units/mL penicillin, 50 μg/mL streptomycin and 100 μM β-mercaptoethanol, the cells were cultured in a differentiation culture solution containing 10% FBS and 4,500 mg/L glucose from the initial day of culture (d0) to day 4 (d4), and after d4, the cells were then cultured in another culture solution containing 10% KSR and 2,000 mg/L glucose. Thus, the cells were cultured for a maximum of 30 days. In order to induce the […] endoderm, activin A (20 ng/mL) and bFGF (50 ng/mL) were added during the period from d0 to d4. Moreover, HGF (10 ng/mL) and dexamethasone (1 μM) were added during the period from d4 to d30. The culture solution was replaced with a fresh one containing a growth factor every two days. The details of such growth factor will be described at the end of the diferentiation section.
Recombinant human activin A (R&D Systems): 20 ng/mL; recombinant human bFGF (Peprotech): 50 ng/mL; recombinant human BMP4 (R&D Systems): 50 ng/mL; SU5402 (Mohammadi, et al., (1997). Science 276, 955-60.) (Calbiochem): 10 μM; recombinant mouse Noggin/Fc Chimera (R&D Systems): 100 ng/mL; recombinant human hepatic cell growth factor (HGF, Peprotech): 10 ng/mL; dexamethasone (Dex, Sigma): 1 μM; recombinant human oncostatin M (OSM, Sigma): 10 ng/mL.
For whole mount immunocytochemical analysis, ES cells were inoculated on 24-well Thennanox coverslips (Nunc). Using TCS-SP2 Spectral Confocal Scanning System (Leica), a confocal image was obtained. Using IX 71 Inverted (Olympus), a phase-contrast image was obtained. The following antibodies were used in detection: mouse anti-GFP (Roche), rabbit anti-α-fetoprotein (AFP, Biomeda), goat anti-albumin (Sigma), fluorescein isothiocyanate (FITC)-labeled Dolichos biflorus agglutinin (DBA) lectin (Sigma), rabbit anti-α-1-anti-trypsin (Sigma), rabbit anti-CYP3A2 (Biomol), rabbit anti-CYP7A1 (Santa Cruz), and mouse anti-Oct3/4 (Santa Cruz). As secondary antibodies, an Alexa568-labeled goat anti-rabbit antibody, donkey anti-goat antibody (Molecular Probes), and an Alexa488-labeled goat anti-mouse antibody, goat anti-rabbit antibody, and donkey anti-goat antibody (Molecular Probes) were used. The cells were subjected to counterstaining using DAPI (Roche). In order to quantify the number of the Afp-expressing cells of FIG. 3B, the region of an Afp-positive stained image was analyzed using Lumina Vision program (Mitani Corporation).

[1] = system: mouse ES cell-derived hepatic cells; assay: Albumin secretion analysis by ELISA; format: cell-based
Experimental: The medium was replaced with a fresh one, and 24 hours later, the conditioned medium was recovered. Using Lebis ELISA kit (Shibayagi), albumin secretion was analyzed.
It has been reported that OsM induces maturation of mouse fetal liver cells (Kamiya, A., Kinoshita, T. & Miyajima, A. (2001) Oncostatin M and hepatocyte growth factor induce hepatic maturation via distinct signaling pathways. FEBS Lett 492, 90-94). Thus, the influence of OsM on albumin secretion was analyzed by ELISA. The effect of OsM to enhance albumin secretion was not observed until […].

Molecule | number of AFP-positive cells (mouse ES cells (SK7)) | AFP expression, one factor added (mouse ES cells (SK7)) | further results
Cc1c[nH]c(/C=C2\C(=O)Nc3ccccc32)c1CCC(=O)O [SU5402, reference compound] | decreased | – | –
HGF: recombinant human hepatic cell growth factor (Peprotech) | – | promoted in the order of Dex>HGF>OsM | –
Noggin | almost all AFP-expressing cells disappeared | – | –
bFGF: recombinant human bFGF (Peprotech) | increased | – | AFP-expressing cells when bFGF was added to Noggin (mouse ES cells (SK7); in the presence of Noggin, after d4, 10% KSR, 2,000 mg/L glucose (FIG. 3)): recovered
OsM: recombinant human oncostatin M (Sigma) (protein, UniProt P13725 26-221, looked up) Oncostatin-M: AAIGSCSKEYRVLLGQLQKQTDLMQDTSRLLDPYIRIQGLDVPKLREHCRERPGAFPSEETLRGLGRRGFLQTLNATLGCVLHRLADLEQRLPKAQDLERSGLNIEDLEKLQMARPNILGLRNNIYCMAQLLDNSDTAEPTKAGRGASQPPTPTPASDAFQRKLEGCRFLHGYHRFMHSVGRVFSKWGESPNRSRR | – | promoted in the order of Dex>HGF>OsM | increase of albumin secretion ([1]; d50 and d60, medium with OsM, Dex and HGF versus control medium with only Dex and HGF, 24 hours): 2 times; effect to enhance albumin secretion ([1]; until c40, OsM added to Dex and HGF): not observed

— patent publication US8309353B2, “Method for induction of differentiation of ES cell” (Kumamoto University, priority 2007, dated 2012)
